Reference: ChEMBL document CHEMBL5260848, “Recent advancements in the development of bioactive pyrazoline derivatives” (Eur J Med Chem, 2020)
In brackets after ≈: the same amount, converted by molar mass.

How the values were obtained:
[1] = tested on: Escherichia coli; assay: Antibacterial activity against Escherichia coli incubated for 24 hrs by disc diffusion method; format: functional
[2] = tested on: Aspergillus fumigatus; assay: Antifungal activity against Aspergillus fumigatus incubated for 24 hrs by disc diffusion method; format: functional
[3] = tested on: Aspergillus niger; assay: Antifungal activity against Aspergillus niger incubated for 24 hrs by disc diffusion method; format: functional
[4] = tested on: Aspergillus flavus; assay: Antifungal activity against Aspergillus flavus incubated for 24 hrs by disc diffusion method; format: functional
[5] = tested on: Mycobacterium tuberculosis; assay: microbe, parasite or virus in culture; conditions: 120 h
[6] = tested on: Staphylococcus aureus; assay: microbe, parasite or virus in culture; conditions: 24 h
[7] = tested on: Bacillus subtilis; assay: microbe, parasite or virus in culture; conditions: 24 h
[8] = tested on: Pseudomonas aeruginosa; assay: microbe, parasite or virus in culture; conditions: 24 h
[9] = tested on: Candida albicans; assay: microbe, parasite or virus in culture; conditions: 24 h
[10] = species on record: Mus musculus; assay: Antidepressant activity in Swiss albino mouse assessed as decrease in immobility time by forced swimming test; format: functional
[11] = species on record: Mus musculus; assay: Antidepressant activity in Swiss albino mouse assessed as decrease in immobility time by tail suspension test; format: functional
[12] = species on record: Homo sapiens; assay: Selectivity index, ratio of Ki for human MAO-A to Ki for human MAO-B
[13] = target: T1, Amine oxidase [flavin-containing] A (Homo sapiens, UniProt P21397)
T1 sequence (P21397 whole entry): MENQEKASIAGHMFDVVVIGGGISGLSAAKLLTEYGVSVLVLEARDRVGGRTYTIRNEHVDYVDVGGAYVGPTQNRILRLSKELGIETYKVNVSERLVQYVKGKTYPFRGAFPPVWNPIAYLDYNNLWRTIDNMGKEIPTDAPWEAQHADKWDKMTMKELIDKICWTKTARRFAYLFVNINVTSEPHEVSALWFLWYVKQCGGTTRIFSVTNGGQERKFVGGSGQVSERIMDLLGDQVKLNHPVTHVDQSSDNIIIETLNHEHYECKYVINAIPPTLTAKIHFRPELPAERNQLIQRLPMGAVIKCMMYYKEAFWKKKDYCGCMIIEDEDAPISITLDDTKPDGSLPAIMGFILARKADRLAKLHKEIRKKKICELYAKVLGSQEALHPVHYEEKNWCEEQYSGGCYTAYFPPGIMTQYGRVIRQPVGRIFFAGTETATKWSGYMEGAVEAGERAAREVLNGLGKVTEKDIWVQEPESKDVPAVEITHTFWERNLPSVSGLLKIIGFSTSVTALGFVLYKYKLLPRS

[14] = target: T2, Amine oxidase [flavin-containing] B (Homo sapiens, UniProt P27338)
T2 sequence (P27338 whole entry): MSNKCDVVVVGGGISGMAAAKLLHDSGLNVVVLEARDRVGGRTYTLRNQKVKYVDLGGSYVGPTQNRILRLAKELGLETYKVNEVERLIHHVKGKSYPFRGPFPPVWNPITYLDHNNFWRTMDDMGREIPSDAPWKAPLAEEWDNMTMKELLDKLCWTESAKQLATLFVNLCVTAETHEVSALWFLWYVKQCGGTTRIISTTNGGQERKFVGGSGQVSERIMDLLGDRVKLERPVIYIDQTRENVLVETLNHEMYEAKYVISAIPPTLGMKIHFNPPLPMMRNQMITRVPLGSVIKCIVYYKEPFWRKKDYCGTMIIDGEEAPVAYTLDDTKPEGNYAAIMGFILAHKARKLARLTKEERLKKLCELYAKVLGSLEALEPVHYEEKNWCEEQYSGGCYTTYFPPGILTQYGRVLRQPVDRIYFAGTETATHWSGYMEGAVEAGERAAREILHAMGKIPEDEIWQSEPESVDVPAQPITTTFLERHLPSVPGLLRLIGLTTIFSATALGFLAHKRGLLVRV

[15] = species on record: Mus musculus; assay: Antidepressant activity in mouse assessed as […] by tail suspension test; format: functional
[16] = species on record: Mus musculus; assay: Antidepressant activity in mouse assessed as […] by forced swimming test; format: functional

Row | Structure (SMILES) | MIC [1] [µg/mL] | MIC [2] [µg/mL] | MIC [3] [µg/mL] | MIC [4] [µg/mL] | MIC [5] [µg/mL] | MIC [6] [µg/mL] | MIC [7] [µg/mL] | MIC [8] [µg/mL] | MIC [9] [µg/mL] | Ratio Ki [12] | Ki [13] [nM] | Ki [14] [nM] | also measured
1 | Cc1ccc(C2CC(c3ccccc3)=NN2C(=O)NNS(=O)(=O)c2ccc(F)cc2F)cc1 (configuration not stated) | 25 (≈ 53.1 µM) | 25 (≈ 53.1 µM) | 25 (≈ 53.1 µM) | 25 (≈ 53.1 µM) | 0.8 (≈ 1.7 µM) | 25 (≈ 53.1 µM) | 25 (≈ 53.1 µM) | 25 (≈ 53.1 µM) | 25 (≈ 53.1 µM) | – | – | – | –
2 | COc1ccc(-c2ccc(C3=NNC(c4ccc(Br)cc4)C3)c(C)n2)cc1OC (configuration not stated) | – | – | – | – | – | – | – | – | – | – | – | – | Time [10]: 66.67 s; Time [11]: 70.33 s
3 | CCNC(=S)N1N=C(c2ccc(Cl)cc2)CC1c1ccc(F)cc1 (configuration not stated) | – | – | – | – | – | – | – | – | – | 0.000464 | 0.1 | 200 | –
4 | C=CCNC(=S)N1N=C(c2ccc(Cl)cc2)CC1c1ccc(F)cc1 (configuration not stated) | – | – | – | – | – | – | – | – | – | 0.000464 | 0.1 | 200 | –
5 | COc1ccc(C2CC(c3ccccn3)=NN2)cc1OC (configuration not stated) | – | – | – | – | – | – | – | – | – | – | – | – | Time [15]: 21.17 s; Time [16]: 21.17 s
6 | C=CCNC(=S)N1N=C(c2ccccc2)CC1c1ccc(F)cc1 (configuration not stated) | – | – | – | – | – | – | – | – | – | 0.000464 | 0.1 | 200 | –
7 | O=C(NNS(=O)(=O)c1ccc(F)cc1)N1N=C(c2ccccc2)CC1c1ccccc1 (configuration not stated) | 25 (≈ 57 µM) | 25 (≈ 57 µM) | 25 (≈ 57 µM) | 25 (≈ 57 µM) | 0.8 (≈ 1.82 µM) | 25 (≈ 57 µM) | 25 (≈ 57 µM) | 25 (≈ 57 µM) | 25 (≈ 57 µM) | – | – | – | –
8 | Oc1ccc(C2=NNC(c3ccco3)C2)cc1 (configuration not stated) | – | – | – | – | – | – | – | – | – | – | – | – | Time [15]: 21.17 s; Time [16]: 21.17 s
9 | Clc1ccc(C2CC(c3ccccn3)=NN2)cc1 (configuration not stated) | – | – | – | – | – | – | – | – | – | – | – | – | Time [15]: 21.17 s; Time [16]: 21.17 s
10 | CNC(=S)N1N=C(c2ccccc2)CC1c1ccc(F)cc1 (configuration not stated) | – | – | – | – | – | – | – | – | – | 0.000464 | 0.1 | 200 | –
11 | O=C(NNS(=O)(=O)c1ccc(F)cc1)N1N=C(c2ccccc2)CC1c1ccc(F)cc1 (configuration not stated) | 25 (≈ 54.8 µM) | 25 (≈ 54.8 µM) | 25 (≈ 54.8 µM) | 25 (≈ 54.8 µM) | 0.8 (≈ 1.75 µM) | 25 (≈ 54.8 µM) | 25 (≈ 54.8 µM) | 25 (≈ 54.8 µM) | 25 (≈ 54.8 µM) | – | – | – | –
12 | COc1ccc(C2CC(c3cccc4ccccc34)=NN2)cc1OC (configuration not stated) | – | – | – | – | – | – | – | – | – | – | – | – | Time [15]: 36.83 s; Time [16]: 21.17 s
13 | CCNC(=S)N1N=C(c2ccccc2)CC1c1ccc(F)cc1 (configuration not stated) | – | – | – | – | – | – | – | – | – | 0.000464 | 0.1 | 200 | –
14 | O=C(NNS(=O)(=O)c1ccc(F)cc1)N1N=C(c2ccc(F)cc2)CC1c1ccc(F)cc1 (configuration not stated) | 25 (≈ 52.7 µM) | 25 (≈ 52.7 µM) | 25 (≈ 52.7 µM) | 25 (≈ 52.7 µM) | 0.8 (≈ 1.69 µM) | 25 (≈ 52.7 µM) | 25 (≈ 52.7 µM) | 25 (≈ 52.7 µM) | 25 (≈ 52.7 µM) | – | – | – | –
15 | O=C(NNS(=O)(=O)c1ccc(F)cc1)N1N=C(c2ccccc2)CC1c1ccc(Cl)cc1 (configuration not stated) | 25 (≈ 52.9 µM) | 25 (≈ 52.9 µM) | 25 (≈ 52.9 µM) | 25 (≈ 52.9 µM) | 0.8 (≈ 1.69 µM) | 25 (≈ 52.9 µM) | 25 (≈ 52.9 µM) | 25 (≈ 52.9 µM) | 25 (≈ 52.9 µM) | – | – | – | –
16 | Cc1ccc(C2CC(c3ccccc3)=NN2C(=O)NNS(=O)(=O)c2ccc(F)cc2)cc1 (configuration not stated) | 25 (≈ 55.2 µM) | 25 (≈ 55.2 µM) | 25 (≈ 55.2 µM) | 25 (≈ 55.2 µM) | 0.8 (≈ 1.77 µM) | 25 (≈ 55.2 µM) | 25 (≈ 55.2 µM) | 25 (≈ 55.2 µM) | 25 (≈ 55.2 µM) | – | – | – | –
17 | COc1ccc(C2=NN(C(=S)Nc3ccccc3)C(c3ccc(F)cc3)C2)cc1 (configuration not stated) | – | – | – | – | – | – | – | – | – | 0.000464 | 0.1 | 200 | –
18 | Cc1nc(-c2cccc(Cl)c2Cl)ccc1C1=NNC(c2ccc(Br)cc2)C1 (configuration not stated) | – | – | – | – | – | – | – | – | – | – | – | – | Time [10]: 66.67 s; Time [11]: 70.33 s
19 | Fc1ccc(C2CC(c3ccc(Cl)cc3)=NN2C(=S)Nc2ccccc2)cc1 (configuration not stated) | – | – | – | – | – | – | – | – | – | 0.000464 | 0.1 | 200 | –
20 | CCNC(=S)N1N=C(c2ccc(OC)cc2)CC1c1ccc(F)cc1 (configuration not stated) | – | – | – | – | – | – | – | – | – | 0.000464 | 0.1 | 200 | –
21 | O=C(NNS(=O)(=O)c1ccccc1)N1N=C(c2ccccc2)CC1c1ccc(Br)cc1 (configuration not stated) | 25 (≈ 50.1 µM) | 25 (≈ 50.1 µM) | 25 (≈ 50.1 µM) | 25 (≈ 50.1 µM) | 0.8 (≈ 1.6 µM) | 25 (≈ 50.1 µM) | 25 (≈ 50.1 µM) | 25 (≈ 50.1 µM) | 25 (≈ 50.1 µM) | – | – | – | –
22 | Fc1ccc(C2CC(c3ccccc3)=NN2C(=S)Nc2ccccc2)cc1 (configuration not stated) | – | – | – | – | – | – | – | – | – | 0.000464 | 0.1 | 200 | –
